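In this assay, cells in 96-well plates receive the compound at five concentrations for 48 hours. Endpoints are linearly interpolated between the surrounding concentrations. TGI marks complete inhibition of growth.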
Key:
Test in all cases: inhibition of tumour cell growth, NCI panel, 48 h
HCT-116 colon = test system: HCT-116 colon
M14 melanoma = test system: M14 melanoma
HOP-92 NSCLC = test system: HOP-92 NSCLC
SK-OV-3 ovarian = test system: SK-OV-3 ovarian
ACHN renal = test system: ACHN renal
MCF7 breast = test system: MCF7 breast
T-47D breast = test system: T-47D breast
SR leukemia = test system: SR leukemia
SF-539 CNS = test system: SF-539 CNS
RPMI-8226 leukemia = test system: RPMI-8226 leukemia
OVCAR-4 ovarian = test system: OVCAR-4 ovarian
SW-620 colon = test system: SW-620 colon
OVCAR-5 ovarian = test system: OVCAR-5 ovarian
K-562 leukemia = test system: K-562 leukemia
MDA-MB-231 breast = test system: MDA-MB-231 breast
786-0 renal = test system: 786-0 renal
A498 renal = test system: A498 renal
KM12 colon = test system: KM12 colon
U251 CNS = test system: U251 CNS
SK-MEL-28 melanoma = test system: SK-MEL-28 melanoma
HL-60(TB) leukemia = test system: HL-60(TB) leukemia
A549 NSCLC = test system: A549 NSCLC
OVCAR-3 ovarian = test system: OVCAR-3 ovarian
HOP-62 NSCLC = test system: HOP-62 NSCLC
MDA-MB-435 = test system: MDA-MB-435
CAKI-1 renal = test system: CAKI-1 renal
LOX IMVI melanoma = test system: LOX IMVI melanoma
UACC-257 melanoma = test system: UACC-257 melanoma
HCC-2998 colon = test system: HCC-2998 colon
COLO 205 colon = test system: COLO 205 colon
RXF 393 renal = test system: RXF 393 renal
SNB-75 CNS = test system: SNB-75 CNS
UACC-62 melanoma = test system: UACC-62 melanoma
SN12C renal = test system: SN12C renal
MOLT-4 leukemia = test system: MOLT-4 leukemia
NCI-H522 lung = test system: NCI-H522 lung
IGROV1 ovarian = test system: IGROV1 ovarian
TK-10 renal = test system: TK-10 renal
BT-549 breast = test system: BT-549 breast
EKVX NSCLC = test system: EKVX NSCLC
HCT-15 colon = test system: HCT-15 colon
NCI-H460 lung = test system: NCI-H460 lung
HT29 colon = test system: HT29 colon
UO-31 renal = test system: UO-31 renal
SK-MEL-2 melanoma = test system: SK-MEL-2 melanoma
DU-145 prostate = test system: DU-145 prostate
CCRF-CEM leukemia = test system: CCRF-CEM leukemia
SNB-19 CNS = test system: SNB-19 CNS
SF-268 CNS = test system: SF-268 CNS
NCI-H23 lung = test system: NCI-H23 lung
MALME-3M melanoma = test system: MALME-3M melanoma
MDA-N = test system: MDA-N
SK-MEL-5 melanoma = test system: SK-MEL-5 melanoma
HS 578T breast = test system: HS 578T breast
SF-295 CNS = test system: SF-295 CNS
NCI/ADR-RES ovarian = test system: NCI/ADR-RES ovarian
PC-3 prostate = test system: PC-3 prostate
OVCAR-8 ovarian = test system: OVCAR-8 ovarian
NCI-H226 lung = test system: NCI-H226 lung

CCCc1cc(=O)oc2c(C=O)c(O)cc(O)c12 was tested, and the TGI (HCT-116 colon) was 47.2 µM, the TGI (M14 melanoma) was 52.7 µM and the TGI (HOP-92 NSCLC) was 45.8 µM. For the same compound, the TGI (SK-OV-3 ovarian) was 86.9 µM, the TGI (ACHN renal) was 86.7 µM and the TGI (MCF7 breast) was 80 µM. It also gave a TGI (T-47D breast) of 74.9 µM, a TGI (SR leukemia) of 58.1 µM and a TGI (SF-539 CNS) of 57 µM. For the same compound, the TGI (RPMI-8226 leukemia) was 66.5 µM, the TGI (OVCAR-4 ovarian) was 73.5 µM and the TGI (SW-620 colon) was 56.4 µM. The TGI (OVCAR-5 ovarian) was 74.4 µM, the TGI (K-562 leukemia) was > 100 µM and the TGI (MDA-MB-231 breast) was 58.2 µM. For the same compound, the TGI (786-0 renal) was > 100 µM, the TGI (A498 renal) was 40.6 µM and the TGI (KM12 colon) was 61.2 µM. It also gave a TGI (U251 CNS) of 55.7 µM, a TGI (SK-MEL-28 melanoma) of 62.8 µM and a TGI (HL-60(TB) leukemia) of 42.7 µM. The TGI (A549 NSCLC) was > 100 µM, the TGI (OVCAR-3 ovarian) was 44.3 µM and the TGI (HOP-62 NSCLC) was 59.7 µM. For the same compound, the TGI (MDA-MB-435) was 55.3 µM, the TGI (CAKI-1 renal) was 75.8 µM and the TGI (LOX IMVI melanoma) was 40.3 µM. It also gave a TGI (UACC-257 melanoma) of 65.2 µM, a TGI (HCC-2998 colon) of 33.6 µM and a TGI (COLO 205 colon) of 40.8 µM. It also gave a TGI (RXF 393 renal) of 53 µM, a TGI (SNB-75 CNS) of 47.4 µM and a TGI (UACC-62 melanoma) of 38.4 µM. For the same compound, the TGI (SN12C renal) was 78.9 µM, the TGI (MOLT-4 leukemia) was 56.5 µM and the TGI (NCI-H522 lung) was 41.9 µM. The TGI (IGROV1 ovarian) was > 100 µM, the TGI (TK-10 renal) was > 100 µM and the TGI (BT-549 breast) was 77.1 µM. It also gave a TGI (EKVX NSCLC) of 56.3 µM, a TGI (HCT-15 colon) of 73.4 µM and a TGI (NCI-H460 lung) of 69.5 µM. For the same compound, the TGI (HT29 colon) was 64.5 µM, the TGI (UO-31 renal) was 60.2 µM and the TGI (SK-MEL-2 melanoma) was 48.4 µM. It also gave a TGI (DU-145 prostate) of 82.2 µM, a TGI (CCRF-CEM leukemia) of 51.4 µM and a TGI (SNB-19 CNS) of 87.1 µM. The TGI (SF-268 CNS) was 76.5 µM, the TGI (NCI-H23 lung) was 48 µM and the TGI (MALME-3M melanoma) was 42.1 µM. For the same compound, the TGI (MDA-N) was 75.6 µM, the TGI (SK-MEL-5 melanoma) was 37.8 µM and the TGI (HS 578T breast) was 61.2 µM. The TGI (SF-295 CNS) was 85 µM, the TGI (NCI/ADR-RES ovarian) was 73 µM and the TGI (PC-3 prostate) was 59.3 µM. It also gave a TGI (OVCAR-8 ovarian) of 62 µM.
For CC1=CC(=O)CC(C)(C)C1(O)/C=C/C(C)=C/C(=O)O (configuration not stated), the TGI (NCI-H226 lung) was > 100 µM, the TGI (HCT-116 colon) was > 100 µM and the TGI (M14 melanoma) was > 100 µM. The TGI (HOP-92 NSCLC) was > 100 µM, the TGI (SK-OV-3 ovarian) was > 100 µM and the TGI (ACHN renal) was > 100 µM. The TGI (MCF7 breast) was > 100 µM, the TGI (T-47D breast) was > 100 µM and the TGI (SR leukemia) was > 100 µM. The TGI (SF-539 CNS) was > 100 µM, the TGI (RPMI-8226 leukemia) was > 100 µM and the TGI (OVCAR-4 ovarian) was > 100 µM. The TGI (SW-620 colon) was > 100 µM, the TGI (OVCAR-5 ovarian) was > 100 µM and the TGI (K-562 leukemia) was > 100 µM. For the same compound, the TGI (MDA-MB-231 breast) was > 100 µM, the TGI (786-0 renal) was > 100 µM and the TGI (A498 renal) was > 100 µM. The TGI (KM12 colon) was > 100 µM, the TGI (U251 CNS) was > 100 µM and the TGI (SK-MEL-28 melanoma) was > 100 µM. For the same compound, the TGI (HL-60(TB) leukemia) was > 100 µM, the TGI (A549 NSCLC) was > 100 µM and the TGI (OVCAR-3 ovarian) was > 100 µM. For the same compound, the TGI (HOP-62 NSCLC) was > 100 µM, the TGI (MDA-MB-435) was > 100 µM and the TGI (CAKI-1 renal) was > 100 µM. The TGI (LOX IMVI melanoma) was > 100 µM, the TGI (UACC-257 melanoma) was > 100 µM and the TGI (HCC-2998 colon) was > 100 µM. The TGI (COLO 205 colon) was > 100 µM, the TGI (RXF 393 renal) was > 100 µM and the TGI (SNB-75 CNS) was > 100 µM. The TGI (UACC-62 melanoma) was > 100 µM, the TGI (SN12C renal) was > 100 µM and the TGI (MOLT-4 leukemia) was > 100 µM. For the same compound, the TGI (NCI-H522 lung) was > 100 µM, the TGI (IGROV1 ovarian) was > 100 µM and the TGI (TK-10 renal) was > 100 µM. The TGI (BT-549 breast) was > 100 µM, the TGI (EKVX NSCLC) was > 100 µM and the TGI (HCT-15 colon) was > 100 µM. The TGI (NCI-H460 lung) was > 100 µM, the TGI (HT29 colon) was > 100 µM and the TGI (UO-31 renal) was > 100 µM. For the same compound, the TGI (SK-MEL-2 melanoma) was > 100 µM, the TGI (DU-145 prostate) was > 100 µM and the TGI (CCRF-CEM leukemia) was > 100 µM. For the same compound, the TGI (SNB-19 CNS) was > 100 µM, the TGI (SF-268 CNS) was > 100 µM and the TGI (NCI-H23 lung) was > 100 µM. The TGI (MALME-3M melanoma) was > 100 µM, the TGI (MDA-N) was > 100 µM and the TGI (SK-MEL-5 melanoma) was > 100 µM. The TGI (HS 578T breast) was > 100 µM, the TGI (SF-295 CNS) was > 100 µM and the TGI (NCI/ADR-RES ovarian) was > 100 µM. For the same compound, the TGI (PC-3 prostate) was > 100 µM and the TGI (OVCAR-8 ovarian) was > 100 µM.
For C=CC(CBr)CCC(Br)C(C)(C)Br (configuration not stated), the TGI (NCI-H226 lung) was > 10 µM, the TGI (HCT-116 colon) was > 10 µM and the TGI (M14 melanoma) was > 10 µM. The TGI (HOP-92 NSCLC) was > 10 µM, the TGI (SK-OV-3 ovarian) was > 10 µM and the TGI (ACHN renal) was > 10 µM. For the same compound, the TGI (MCF7 breast) was > 10 µM, the TGI (T-47D breast) was > 10 µM and the TGI (SF-539 CNS) was > 10 µM. The TGI (RPMI-8226 leukemia) was > 10 µM, the TGI (OVCAR-4 ovarian) was > 10 µM and the TGI (SW-620 colon) was > 10 µM. The TGI (OVCAR-5 ovarian) was > 10 µM, the TGI (K-562 leukemia) was > 10 µM and the TGI (MDA-MB-231 breast) was > 10 µM. For the same compound, the TGI (786-0 renal) was > 10 µM, the TGI (A498 renal) was > 10 µM and the TGI (KM12 colon) was > 10 µM. The TGI (U251 CNS) was > 10 µM, the TGI (SK-MEL-28 melanoma) was > 10 µM and the TGI (A549 NSCLC) was > 10 µM. The TGI (OVCAR-3 ovarian) was > 10 µM, the TGI (HOP-62 NSCLC) was > 10 µM and the TGI (MDA-MB-435) was > 10 µM. The TGI (CAKI-1 renal) was > 10 µM, the TGI (UACC-257 melanoma) was > 10 µM and the TGI (HCC-2998 colon) was > 10 µM. The TGI (COLO 205 colon) was > 10 µM, the TGI (RXF 393 renal) was > 10 µM and the TGI (SNB-75 CNS) was > 10 µM. The TGI (SN12C renal) was > 10 µM, the TGI (MOLT-4 leukemia) was > 10 µM and the TGI (NCI-H522 lung) was > 10 µM. For the same compound, the TGI (IGROV1 ovarian) was > 10 µM, the TGI (TK-10 renal) was > 10 µM and the TGI (BT-549 breast) was > 10 µM. For the same compound, the TGI (EKVX NSCLC) was > 10 µM, the TGI (HCT-15 colon) was > 10 µM and the TGI (NCI-H460 lung) was > 10 µM. The TGI (HT29 colon) was > 10 µM, the TGI (UO-31 renal) was > 10 µM and the TGI (SK-MEL-2 melanoma) was > 10 µM. For the same compound, the TGI (DU-145 prostate) was > 10 µM, the TGI (CCRF-CEM leukemia) was > 10 µM and the TGI (SNB-19 CNS) was > 10 µM. For the same compound, the TGI (SF-268 CNS) was > 10 µM, the TGI (NCI-H23 lung) was > 10 µM and the TGI (MALME-3M melanoma) was > 10 µM. For the same compound, the TGI (MDA-N) was > 10 µM, the TGI (SK-MEL-5 melanoma) was > 10 µM and the TGI (HS 578T breast) was > 10 µM. The TGI (SF-295 CNS) was > 10 µM, the TGI (NCI/ADR-RES ovarian) was > 10 µM and the TGI (PC-3 prostate) was > 10 µM. The TGI (OVCAR-8 ovarian) was > 10 µM.

Source: PubChem BioAssay (NCI)
